Source: patent US7078499B2, “Nucleotide analogues comprising a reporter moiety and a polymerase enzyme blocking moiety” (GE Healthcare UK Limited, priority 2000, dated 2006)

Tests used:
Type in all cases: biochemical
[1] = system: SAV RT; assay: Mesophilic reverse transcriptase reaction, SAV RT; set-up: key to result of incorporation (termination / further chain extension): T: Incorporation results in termination; E: Incorporation permits further chain extension; T/E: Predominant product is primer extended by one base, but evidence of some further extension also observed; conditions: RNA template, final enzyme concentration of 4 units/μl
Description: (§1) DNA polymerase assays were performed using Sequence 1 as primer and Sequence 2 as template. • Sequence 1 5′[Cy3]TAACTCATTAACAGGATC 3′ • Sequence 2 5′AT TCGCGGTATTCTGGTATGAAGCTTTTAGATCCTGTTAATGAGTTA GTA3′
(§2) The template (Sequence 2) was designed such that the base (underlined) immediately adjacent to the 3′ end of the hybridised primer is complementary to the nucleotide test compound. Nucleotide test compounds were compounds (6) (4′-C-(glycylaminomethyl)thymidine triphosphate), (8) (4′-C-(N-trifluoroacetyaminomethyl)thymidine triphosphate) and (9) (4′-C-(aminomethyl)thymidine triphosphate) as described above.
(§3) Primer extension reactions were performed using the above primers in the presence of 40 to 80 μM of nucleotide triphosphates. Positive control reactions contained all four native nucleotide triphosphates. For the other reactions the TTP was replaced with either a 2:1 ratio of […] for the terminator control, or entirely by the test compound The enzymes were used at a final concentration of 0.175 units/μl and a magnesium ion concentration of 2.5 mM in buffers supplied by the manufacturer. The primer and template concentrations were 0.5 pmol/μl and 2 pmol/μl respectively.
(§4) Extension reactions preformed with mesophilic polymerases were carried out by mixing all the components of the reaction except the enzyme and heating to 70° C. for 5 min. After the reactions had cooled to room temperature 0.175 units of the enzyme were added and the reactions heated to 37° C. for 20–40 minutes. The following enzymes were used: T7 DNA polymerase (T7); Sequenase 2™ (Seq); Klenow fragment of DNA polymerase 1 (Klen); phi-29 DNA polymerase (Phi-29); T4 DNA polymerase (T4) (all from AP Biotech) and Bst DNA polymerase (Bst) (Cambio Ltd).
(§5) Reverse transcriptase reactions were performed essentially as described above for thermophilic and mesophilic enzymes. The template for these reactions was the RNA equivalent of sequence 2. All the thermophilic enzymes were assayed in Tth reaction buffer (Cambio Ltd, Cambridge UK) containing 2.5 mM Manganese ions. The following enzymes were used: Thermosequenase (TS1); Thermosequenase II (TSII); delta Tts DNA polymerase (deltaTts); delta Tts D DNA polymerase (deltaTtsD) (all from APBiotech); Retrotherm reverse transcriptase (Retroth) (Cambio Ltd); Tth DNA polymerase (Tth) (Cambio Ltd.).
(§6) Mesophilic reverse transcriptases (AMV RT; MuLV RT; SAV RT and HIV RT all from APBiotech) were assayed in their respective buffers with a final enzyme concentration of 4 units/μl.
(§7) The reactions were stopped by adding a 0.5 volume aliquot of 80% formamide containing 0.1% (w/v) bromophenol blue and 0.1% (w/v) cresol blue. The reaction products were separated by denaturing gel electrophoresis at a constant power of 45 W on 16% polyacrylamide gels containing 50% urea.
(§8) Gels were scanned for Cy3 fluorescence on a Molecular Dynamics Fluorimager and the data analysed using Molecular Dynamics ImageQuant 5 software.
(§9) The incorporation of a test nucleotide triphosphate results in the appearance on a polyacrylamide gel of a single band corresponding to a single base extension product. If, however, the enzyme adds additional bases then further bands would be observed that corresponded to either the full-length product or positions of other complementary bases in the template.

[2] = system: a range of polymerases; assay: DNA polymerase assays (summary); conditions: for further extension after incorporation: reverse transcriptase conditions; for result of incorporation / substrate for polymerases: summary of polymerase assays
Description: as §1, §2, §3
(§10) Extension reactions with thermophilic enzymes were performed by initially denaturing the fully assembled reactions at 70° C. for 5 min. followed by 45° C. for 20–40 minutes. The following enzymes were used: Taq DNA polymerase (Taq); Thermosequenase (TS); Thermosequenase II (TSII); Thermosequenase E (TSE), Tfl DNA polymerase (Tfl); Tth DNA polymerase (Tth), deltaTts DNA polymerase (deltaTts), deltaTts D DNA polymerase (dettaTTSD) (all from APBiotech); Pfu DNA polymerase (Pfu) (Stratagene Ltd); Vent™ DNA polymerase (Vent) (New England Biolabs).
as §4, §5, §6, §7, §8, §9

[3] = biological target: T1, Tfl DNA polymerase (Thermus thermophilus, UniProt P30313); assay: Thermostable DNA polymerase primer extension, Tfl; set-up: key to result of incorporation (termination / further chain extension): T: Incorporation results in termination; E: Incorporation permits further chain extension; T/E: Predominant product is primer extended by one base, but evidence of some further extension also observed; conditions: DNA template, 45° C. for 20–40 minutes; for primer extended by at least one base within assay time (grade): TTP replaced entirely by test compound
T1 construct: purchased APBiotech
T1 sequence (P30313 whole entry): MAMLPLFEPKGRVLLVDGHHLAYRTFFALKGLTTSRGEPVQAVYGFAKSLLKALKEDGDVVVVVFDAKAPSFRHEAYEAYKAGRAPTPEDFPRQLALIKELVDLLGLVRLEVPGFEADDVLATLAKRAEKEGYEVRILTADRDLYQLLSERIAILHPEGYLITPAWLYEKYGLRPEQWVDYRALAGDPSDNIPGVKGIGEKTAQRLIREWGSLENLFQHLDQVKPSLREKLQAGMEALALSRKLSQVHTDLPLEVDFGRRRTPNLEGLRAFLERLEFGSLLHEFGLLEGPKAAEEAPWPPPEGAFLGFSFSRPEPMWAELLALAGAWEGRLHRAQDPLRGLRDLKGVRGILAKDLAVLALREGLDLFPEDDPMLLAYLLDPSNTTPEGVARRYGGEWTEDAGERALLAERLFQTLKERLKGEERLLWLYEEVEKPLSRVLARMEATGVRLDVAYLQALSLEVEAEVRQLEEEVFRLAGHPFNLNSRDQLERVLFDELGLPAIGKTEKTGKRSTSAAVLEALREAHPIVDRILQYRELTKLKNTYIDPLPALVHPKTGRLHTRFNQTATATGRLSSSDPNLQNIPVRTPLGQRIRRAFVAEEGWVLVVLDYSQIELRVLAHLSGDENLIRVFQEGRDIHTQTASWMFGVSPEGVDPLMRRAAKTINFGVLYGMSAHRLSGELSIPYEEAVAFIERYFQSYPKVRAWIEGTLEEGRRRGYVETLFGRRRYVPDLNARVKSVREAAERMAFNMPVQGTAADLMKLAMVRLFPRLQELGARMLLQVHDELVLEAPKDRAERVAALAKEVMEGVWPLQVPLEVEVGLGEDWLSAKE
Description: as §1, §2, §3, §10, §7, §8, §9

[4] = system: Thermosequenase E; assay: Thermostable DNA polymerase primer extension, TSE; set-up: key to result of incorporation (termination / further chain extension): T: Incorporation results in termination; E: Incorporation permits further chain extension; T/E: Predominant product is primer extended by one base, but evidence of some further extension also observed; conditions: DNA template, 45° C. for 20–40 minutes; for primer extended by at least one base within assay time (grade): TTP replaced entirely by test compound
Description: as §1, §2, §3, §10, §7, §8, §9

[5] = system: deltaTts D DNA polymerase; assay: Thermostable DNA polymerase primer extension, delta TTSD; set-up: key to result of incorporation (termination / further chain extension): T: Incorporation results in termination; E: Incorporation permits further chain extension; T/E: Predominant product is primer extended by one base, but evidence of some further extension also observed; conditions: DNA template, 45° C. for 20–40 minutes; for primer extended by at least one base within assay time (grade): TTP replaced entirely by test compound
Description: as §1, §2, §3, §10, §7, §8, §9

[6] = system: Thermosequenase II; assay: Thermostable DNA polymerase primer extension, TSII; set-up: key to result of incorporation (termination / further chain extension): T: Incorporation results in termination; E: Incorporation permits further chain extension; T/E: Predominant product is primer extended by one base, but evidence of some further extension also observed; conditions: DNA template, 45° C. for 20–40 minutes; for primer extended by at least one base within assay time (grade): TTP replaced entirely by test compound
Description: as §1, §2, §3, §10, §7, §8, §9

[7] = biological target: T2, Klenow fragment of DNA polymerase 1 (Escherichia coli, UniProt P00582); assay: Mesophilic DNA polymerase primer extension, Klen; set-up: key: −: No extension within assay time; +/−: up to 25% of primer extended by at least one base within assay time; +: up to 50% of primer extended by at least one base within assay time; ++: up to 75% of primer extended by at least one base within assay time; +++: essentially all primer extended by at least one base within assay time; conditions: DNA template, TTP replaced entirely by test compound, 37° C. for 20–40 minutes
T2 construct: Klenow fragment of DNA polymerase 1 (Klen); purchased AP Biotech
T2 sequence (P00582 324-928): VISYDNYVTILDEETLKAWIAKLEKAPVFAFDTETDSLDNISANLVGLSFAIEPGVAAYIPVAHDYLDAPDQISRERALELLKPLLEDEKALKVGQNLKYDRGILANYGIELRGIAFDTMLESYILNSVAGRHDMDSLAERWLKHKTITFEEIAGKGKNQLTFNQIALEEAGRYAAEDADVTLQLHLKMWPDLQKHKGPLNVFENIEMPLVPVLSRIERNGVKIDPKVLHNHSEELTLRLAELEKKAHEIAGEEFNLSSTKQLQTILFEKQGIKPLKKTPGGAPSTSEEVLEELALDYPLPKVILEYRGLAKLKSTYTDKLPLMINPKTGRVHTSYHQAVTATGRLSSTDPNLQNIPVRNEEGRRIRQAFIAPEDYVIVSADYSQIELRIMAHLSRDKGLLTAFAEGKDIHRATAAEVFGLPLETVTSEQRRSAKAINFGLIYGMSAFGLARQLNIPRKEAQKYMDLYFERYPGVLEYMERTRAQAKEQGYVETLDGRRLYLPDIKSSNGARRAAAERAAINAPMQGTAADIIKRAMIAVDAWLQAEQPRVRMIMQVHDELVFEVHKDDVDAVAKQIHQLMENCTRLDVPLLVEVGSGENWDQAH
Description: as §1, §2, §3, §4
The reactions were stopped by adding a 0.5 volume aliquot of 80% formamide containing 0.1% (w/v) bromophenol blue and 0.1% (w/v) cresol blue. […]
Gels were scanned for Cy3 fluorescence on a Molecular Dynamics Fluorimager and the data analysed using Molecular Dynamics ImageQuant 5 software. […]

Compound	primer extended by at least one base within assay time (grade) [1]	result of incorporation (termination / further chain extension) [1]	further extension after incorporation [2]	result of incorporation [2]	substrate for polymerases [2]	result of incorporation (termination / further chain extension) [3]	primer extended by at least one base within assay time (grade) [3]	result of incorporation (termination / further chain extension) [4]	primer extended by at least one base within assay time (grade) [4]	result of incorporation (termination / further chain extension) [5]	primer extended by at least one base within assay time (grade) [5]	result of incorporation (termination / further chain extension) [6]	primer extended by at least one base within assay time (grade) [6]	primer extended by at least one base within assay time (grade) [7]
4′-C-(Aminomethyl)thymidine triphosphate [compound (9)]	++ (up to 75% of primer extended by at least one base within assay time)	E	some extension was observed	termination	effective substrates	T	+/− (up to 25% of primer extended by at least one base within assay time)	T	++ (up to 75% of primer extended by at least one base within assay time)	T/E	++ (up to 75% of primer extended by at least one base within assay time)	T	+ (up to 50% of primer extended by at least one base within assay time)	−
Cc1cn([C@H]2C[C@H](O)[C@@](CNC(=O)C(F)(F)F)(COP(=O)(O)OP(=O)(O)OP(=O)(O)O)O2)c(=O)[nH]c1=O [compound (8), 4′-C-(N-trifluoroacetylaminomethyl)thymidine triphosphate]	++ (up to 75% of primer extended by at least one base within assay time)	E	some extension was observed	termination	effective substrates	T	+/− (up to 25% of primer extended by at least one base within assay time)	T	++ (up to 75% of primer extended by at least one base within assay time)	T/E	++ (up to 75% of primer extended by at least one base within assay time)	T	+ (up to 50% of primer extended by at least one base within assay time)	−
4′-C-(Glycylaminomethyl)thymidine triphosphate [compound (6)]	+ (up to 50% of primer extended by at least one base within assay time)	E?	some extension was observed	termination	effective substrates	T	+/− (up to 25% of primer extended by at least one base within assay time)	T	++ (up to 75% of primer extended by at least one base within assay time)	T	++ (up to 75% of primer extended by at least one base within assay time)	T	+ (up to 50% of primer extended by at least one base within assay time)	−
